In the supplement of paper PMC7224384 one finds drug sensitivity score data, which are given here for 47 compounds.

Experiment [1] concerns MDA-MB-453. Nature of the experiment: drug sensitivity score (DSS), single agent (DSS (weighted AUC score)); higher = more sensitive (stronger viability decrease); extreme values may be limits of the assay. Particulars: BLU9931 0 nM; 72 h. The gist of the method:
(§1)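 Each 384-well plate held compounds from the FIMM Oncology set, predispensed in singlicate at five 10-fold dilutions spanning a 10,000-fold range, and each well then received 2000 MDA-MB-453 cells in medium with or without an FGFR4 inhibitor at 100 nM final. Plates stayed at 37 °C, 5% CO2 for 72 h, after which cellular ATP was measured with CellTiterGlo 2.0. Readings were converted per plate into percent viability against control wells, and the drug sensitivity score was taken as a weighted area under a four-parameter logistic fit.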

In experiment [2] the test system is MDA-MB-453. Nature of the experiment: drug sensitivity score (DSS), in combination with BLU9931 (DSS (weighted AUC score)); higher = more sensitive (stronger viability decrease); extreme values may be limits of the assay. Particulars: BLU9931 100 nM; 72 h. A digest of the protocol: as §1

Turning to `CO[C@H]1C[C@@H]2CC[C@@H](C)[C@@](O)(O2)C(=O)C(=O)N2CCCC[C@H]2C(=O)O[C@H]([C@H](C)C[C@@H]2CC[C@@H](O)[C@H](OC)C2)CC(=O)[C@H](C)/C=C(\C)[C@@H](O)[C@@H](OC)C(=O)[C@H](C)C[C@H](C)/C=C/C=C/C=C/1C` [Sirolimus], the drug sensitivity score in experiment [1] came to 5.1; in experiment [2], 10.5.
As for `COc1cc(Nc2ncc(F)c(Nc3ccc4c(n3)N(COP(=O)(O)O)C(=O)C(C)(C)O4)n2)cc(OC)c1OC` [Fostamatinib], the drug sensitivity score was 0.1 in experiment [1] and 0 in experiment [2].
With `Cc1noc2c1-c1ccccc1C(c1ccc(Cl)cc1)=N[C@H]2CC(N)=O` [CPI-0610], the drug sensitivity score worked out at 9.4 in experiment [1] and 10 in experiment [2].
Consider `Nc1ncnc2c1nc(Cl)n2[C@@H]1O[C@H](CO)[C@@H](O)[C@H]1O` [8-chloro-adenosine], for which the drug sensitivity score in experiment [1] is 8.1; in experiment [2] it was 9.4.
On to `Nc1nccc(-c2c(-c3ccc(F)cc3)ncn2C2CCCCC2)n1`, for which the drug sensitivity score turned out to be 1.1 in experiment [1] and 0.6 in experiment [2].
Regarding `CCN(CC)CCNC(=O)c1c(C)[nH]c(/C=C2\C(=O)Nc3ccc(F)cc32)c1C` [Sunitinib], the drug sensitivity score amounted to 0.2 in experiment [1] and 0 in experiment [2].
As to `CCN1C(=O)CNc2ncc(-c3ccc(-c4nc[nH]n4)nc3C)nc21` [CC-115], the results for the drug sensitivity score in experiment [1] and in experiment [2] were 12.2 and 12.5, respectively.
Consider `COc1ccc(Cn2ccc3ccc(C(=O)NO)cc32)cc1`, for which the drug sensitivity score in experiment [1] worked out at 0.8; in experiment [2] it was 2.3.
As to `Cc1ccc(F)c(NC(=O)Nc2ccc(-c3cccc4[nH]nc(N)c34)cc2)c1` [Linifanib], the drug sensitivity score in experiment [1] and in experiment [2] was 0 throughout.
For the compound `Cc1c(N)nc([C@H](CC(N)=O)NC[C@H](N)C(N)=O)nc1C(=O)N[C@H](C(=O)N[C@H](C)[C@@H](O)[C@H](C)C(=O)N[C@H](C(=O)NCCc1nc(-c2nc(C(=O)NCCC[S+](C)C)cs2)cs1)[C@@H](C)O)[C@@H](OC1OC(CO)C(O)C(O)C1OC1OC(CO)C(O)C(OC(N)=O)C1O)c1cnc[nH]1` (some centres undefined) [Bleomycin], the drug sensitivity score in experiment [1] and in experiment [2] was 0 throughout.
With `Cc1cn(-c2cc(NC(=O)c3ccc(C)c(Nc4nccc(-c5cnccn5)n4)c3)cc(C(F)(F)F)c2)cn1` [Radotinib], the drug sensitivity score in experiment [1] stood at 0; in experiment [2] it was 2.4.
Consider `NCC(=O)Nc1ccc(-n2nc(C(F)(F)F)cc2-c2ccc3c(ccc4ccccc43)c2)cc1`, for which the results for the drug sensitivity score in experiment [1] and in experiment [2] were 2.1 and 0, respectively.
With `Cc1c(Cn2c(C)nc3c(C(=O)O)cc(N4CCOCC4)cc32)cccc1C(F)(F)F`, the drug sensitivity score in experiment [1] and in experiment [2] was 0 throughout.
Take `C=CC(=O)N1CC/C(=C\c2ccc(F)c([N+](=O)[O-])c2)C(=O)/C(=C/c2ccc(F)c([N+](=O)[O-])c2)C1` [VLX1570]: the drug sensitivity score was 21.1 in experiment [1] and 19.3 in experiment [2].
Regarding `CCOC(=O)C1=CCCC[C@H]1S(=O)(=O)Nc1ccc(F)cc1Cl` [Resatorvid], the drug sensitivity score in experiment [1] and in experiment [2] was 0 in each case.
`C#Cc1cccc(Nc2ncnc3cc4c(cc23)OCCOCCOCCO4)c1` [Icotinib]: the drug sensitivity score in experiment [1] turned out to be 1.8; in experiment [2] it was 1.9.
As for `CCn1c(-c2nonc2N)nc2c(C#CC(C)(C)O)ncc(OC[C@H]3CCCNC3)c21`, the drug sensitivity score in experiment [1] came out at 13; in experiment [2], 15.
For `CN1CCN(c2ccc3nc(-c4c(N)c5c(F)cccc5[nH]c4=O)[nH]c3c2)CC1` [Dovitinib], in that order: 0 and 0.
On to `Nc1nc(Cl)nc2c1ncn2[C@H]1C[C@H](O)[C@@H](CO)O1` [Cladribine], for which the drug sensitivity score in experiment [1] and in experiment [2] was 0 throughout.
With `CN(C)C(=N)NC(=N)N` [Metformin], the drug sensitivity score in experiment [1] and in experiment [2] was 0 in each case.
Take `Cc1ccc(Nc2nccc(N(C)c3ccc4c(C)n(C)nc4c3)n2)cc1S(N)(=O)=O` [Pazopanib]: the drug sensitivity score amounted to 2.3 in experiment [1] and 0 in experiment [2].
For `CC(C)(C)NC(=O)[C@H]1CC[C@H]2[C@@H]3CC[C@H]4NC(=O)C=C[C@]4(C)[C@H]3CC[C@]12C` [Finasteride], the drug sensitivity score stood at 0.3 in experiment [1] and 0 in experiment [2].
Take `C=C1C[C@@H]2[C@H](CC[C@]3(C)C(=O)CC[C@@H]23)[C@@]2(C)C=CC(=O)C=C12` [Exemestane]: the drug sensitivity score in experiment [1] amounted to 4.8; in experiment [2], 0.
With `CC(C)C[C@H](NC(=O)[C@H](CCc1ccccc1)NC(=O)CN1CCOCC1)C(=O)N[C@@H](Cc1ccccc1)C(=O)N[C@@H](CC(C)C)C(=O)[C@@]1(C)CO1` [Carfilzomib], the figures for the drug sensitivity score in experiment [1] and in experiment [2] were 24.5 and 22.9, respectively.
Turning to `CC1(C)OCCn2c1nc1c(N3CCOCC3)nc(-c3cnc(N)nc3)nc12` [GDC-0084], the drug sensitivity score in experiment [1] amounted to 16.4; in experiment [2], 17.4.
`COc1cc2nccc(Oc3ccc(NC(=O)NC4CC4)c(Cl)c3)c2cc1C(N)=O` [Lenvatinib]: the drug sensitivity score came out at 3.9 in experiment [1] and 0.9 in experiment [2].
In the same order, the values of `Cc1cc(Nc2cc(CN3CCOCC3)c3nc(C)c(Cc4ccc(Cl)cc4F)n3n2)n[nH]1` [Gandotinib] are 5 and 1.2.
`Nc1ccccc1NC(=O)c1ccc(CNc2nccc(-c3cccnc3)n2)cc1` [Mocetinostat]: the drug sensitivity score in experiment [1] worked out at 16; in experiment [2] it was 17.7.
In the case of `COc1ccc(-c2ccc3ncc4c(c3c2)n(-c2ccc(N3CCNCC3)c(C(F)(F)F)c2)c(=O)n4C)cn1` [NVP-BGT226], the drug sensitivity score in experiment [1] stood at 24.8; in experiment [2], 24.4.
Turning to `CCOCc1nc2c(N)nc3ccccc3c2n1CC(C)(C)O` [Resiquimod], the figures for the drug sensitivity score in experiment [1] and in experiment [2] were 0.9 and 0, respectively.
`Cc1c(-c2ccc(N3CCc4cccc(C(=O)Nc5nc6ccccc6s5)c4C3)nc2C(=O)O)cnn1CC12CC3CC(CC(C3)C1)C2`: the drug sensitivity score in experiment [1] came to 1.4; in experiment [2] it was 5.4.
As to `Cc1ccc(=O)n(-c2ccccc2)c1` [Pirfenidone], the drug sensitivity score in experiment [1] and in experiment [2] was 0 each time.
`CN(C(=O)c1ccc(F)cc1C(F)(F)F)C1CCN(c2nnc(-c3ccnn3C)c3ccccc23)CC1` [Taladegib]: the drug sensitivity score was found to be 1.6 in experiment [1] and 1.1 in experiment [2].
In the same order, the values of `O=C(NCc1ccncc1)C12CC3CC(C1)CC(c1ccc(Cl)cc1)(C3)C2` are 1.1 and 0.
In the same order, the values of `O=C(O)C(=O)O.[NH-][C@@H]1CCCC[C@H]1[NH-].[Pt+2]` [Oxaliplatin] are 8.2 and 7.
For `COc1cc2nccc(Oc3ccc(NC(=O)C4(C(=O)Nc5ccc(F)cc5)CC4)cc3)c2cc1OC` [Cabozantinib], the figures for the drug sensitivity score in experiment [1] and in experiment [2] were 1.3 and 1.6, respectively.
On to `CO[C@@H](C(=O)N1Cc2[nH]nc(NC(=O)c3ccc(N4CCN(C)CC4)cc3)c2C1)c1ccccc1` [Danusertib], for which the drug sensitivity score in experiment [1] amounted to 0.3; in experiment [2], 0.
Regarding `NC1(c2ccc(-c3nc4ccn5c(=O)[nH]nc5c4cc3-c3ccccc3)cc2)CCC1` [MK-2206], the drug sensitivity score is 8.3 in experiment [1] and 8.9 in experiment [2].
Turning to `O=c1[nH]c(=O)n([C@H]2C[C@H](O)[C@@H](CO)O2)cc1C(F)(F)F` [Trifluridine], the drug sensitivity score in experiment [1] was 2.6; in experiment [2] it was 1.2.
`OC[C@H]1O[C@@H](n2cnc3c2N=CNC[C@H]3O)C[C@@H]1O` [Pentostatin]: the results for the drug sensitivity score in experiment [1] and in experiment [2] were 1 and 0, respectively.
As to `COc1cc(Nc2ncc(F)c(Nc3ccc4c(n3)NC(=O)C(C)(C)O4)n2)cc(OC)c1OC` [Tamatinib], the drug sensitivity score in experiment [1] and in experiment [2] was 0 throughout.
On to `CC[C@H](CC#N)OC(=O)N[C@@H](C)c1cccc(NC(=O)Nc2ccc(-c3cnco3)c(OC)c2)c1` [AVN944], for which the drug sensitivity score in experiment [1] was determined as 7.1; in experiment [2] it was 3.2.
Consider `CO[C@H]1C[C@@H]2CC[C@@H](C)[C@@](O)(O2)C(=O)C(=O)N2CCCC[C@H]2C(=O)O[C@H]([C@H](C)C[C@@H]2CC[C@@H](OP(C)(C)=O)[C@H](OC)C2)CC(=O)[C@H](C)/C=C(\C)[C@@H](O)[C@@H](OC)C(=O)[C@H](C)C[C@H](C)/C=C/C=C/C=C/1C` [Ridaforolimus], for which the drug sensitivity score in experiment [1] worked out at 9.5; in experiment [2], 14.7.
`CN[C@@H](C)C(=O)N[C@H](C(=O)N1CCC[C@H]1c1nc(C(=O)c2ccc(F)cc2)cs1)C1CCCCC1` [NVP-LCL161]: the values for the drug sensitivity score in experiment [1] and in experiment [2] were 8 and 8.1, respectively.
For `Cc1nc(Nc2n[nH]c3c2CN(C(=O)N[C@H](CN(C)C)c2ccccc2)C3(C)C)c2sccc2n1`, in that order: 11.4 and 8.7.
In the same order, the values of `Nc1cc(F)ccc1NC(=O)c1ccc(CNC(=O)/C=C/c2cccnc2)cc1` [Tucidinostat] are 9.8 and 10.1.
With `CCOc1ccn(-c2ccc(F)cc2)c(=O)c1C(=O)Nc1ccc(Oc2ccnc(N)c2Cl)c(F)c1`, the drug sensitivity score in experiment [1] and in experiment [2] was 0 throughout.
